What all share (type): cell-based
The test system of experiment [1] is MCF7 cells. Briefly: Anti-proliferation (viability) of MCF7 cells (Table 7, FIG. 2B). The note with it: Homo sapiens, MCF7, MCF7 cells, 3-6 days, 10-point serial dilution; read-out: GI IC50 in MCF-7.
In experiment [2] the test system is Calu-1 cells. The experiment can be described thus: Anti-proliferation (viability) of NSCLC Calu-1 cells, 3 days (Table 7, FIG. 2B). Particulars: Homo sapiens, 72 h; Calu-1 cells, 3 days, 10-point serial dilution; read-out: GI IC50 in Calu-1. In a few lines: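 Viability after a 10-point dilution series of heterobifunctional compounds, with exposure of 6 days for ER+ breast T47D cells and 3 days for NSCLC Calu-1 cells.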

Experiment [3] addresses CDK4 (Homo sapiens, UniProt P11802+Q16531). Briefly: CDK4 percentage degradation in Calu-1 cells (Table 6). Particulars: 16 hours; for inhibition at 0.04 µM: 40 nM; for inhibition at 0.2 µM: 200 nM. Also on record: Cells that express cyclin D1-3 and CDK4/6 proteins were treated with heterobifunctional compounds; endogenous in cells; host or cells: Calu-1. The method in brief: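 Calu-1 cells exposed to heterobifunctional compounds at 40 nM or 200 nM for 16 h. Cyclin D1 and CDK4 levels measured by Western blot of RIPA lysates (BCA-normalised loading), bands quantified by densitometry and expressed as percentage degradation.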

CDK4, sequence (P11802 2-303 limits assumed): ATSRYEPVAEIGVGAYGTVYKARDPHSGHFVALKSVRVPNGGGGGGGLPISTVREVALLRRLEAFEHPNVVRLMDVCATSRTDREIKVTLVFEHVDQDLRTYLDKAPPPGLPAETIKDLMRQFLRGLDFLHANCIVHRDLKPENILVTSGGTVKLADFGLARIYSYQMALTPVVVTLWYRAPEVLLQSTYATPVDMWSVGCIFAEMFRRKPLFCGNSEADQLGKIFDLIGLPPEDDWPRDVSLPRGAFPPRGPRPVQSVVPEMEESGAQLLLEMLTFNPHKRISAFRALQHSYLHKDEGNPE
CDK4, sequence (P24385 whole entry partner): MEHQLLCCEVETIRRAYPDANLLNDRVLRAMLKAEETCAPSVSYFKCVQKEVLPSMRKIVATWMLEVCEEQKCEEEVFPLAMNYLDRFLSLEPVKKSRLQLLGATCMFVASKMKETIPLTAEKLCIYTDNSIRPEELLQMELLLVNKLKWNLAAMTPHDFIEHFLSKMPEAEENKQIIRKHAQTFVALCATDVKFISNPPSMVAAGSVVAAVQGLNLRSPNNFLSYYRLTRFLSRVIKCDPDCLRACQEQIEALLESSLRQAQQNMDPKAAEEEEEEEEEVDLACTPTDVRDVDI
CDK4, sequence (Q16531 2-1140 limits assumed): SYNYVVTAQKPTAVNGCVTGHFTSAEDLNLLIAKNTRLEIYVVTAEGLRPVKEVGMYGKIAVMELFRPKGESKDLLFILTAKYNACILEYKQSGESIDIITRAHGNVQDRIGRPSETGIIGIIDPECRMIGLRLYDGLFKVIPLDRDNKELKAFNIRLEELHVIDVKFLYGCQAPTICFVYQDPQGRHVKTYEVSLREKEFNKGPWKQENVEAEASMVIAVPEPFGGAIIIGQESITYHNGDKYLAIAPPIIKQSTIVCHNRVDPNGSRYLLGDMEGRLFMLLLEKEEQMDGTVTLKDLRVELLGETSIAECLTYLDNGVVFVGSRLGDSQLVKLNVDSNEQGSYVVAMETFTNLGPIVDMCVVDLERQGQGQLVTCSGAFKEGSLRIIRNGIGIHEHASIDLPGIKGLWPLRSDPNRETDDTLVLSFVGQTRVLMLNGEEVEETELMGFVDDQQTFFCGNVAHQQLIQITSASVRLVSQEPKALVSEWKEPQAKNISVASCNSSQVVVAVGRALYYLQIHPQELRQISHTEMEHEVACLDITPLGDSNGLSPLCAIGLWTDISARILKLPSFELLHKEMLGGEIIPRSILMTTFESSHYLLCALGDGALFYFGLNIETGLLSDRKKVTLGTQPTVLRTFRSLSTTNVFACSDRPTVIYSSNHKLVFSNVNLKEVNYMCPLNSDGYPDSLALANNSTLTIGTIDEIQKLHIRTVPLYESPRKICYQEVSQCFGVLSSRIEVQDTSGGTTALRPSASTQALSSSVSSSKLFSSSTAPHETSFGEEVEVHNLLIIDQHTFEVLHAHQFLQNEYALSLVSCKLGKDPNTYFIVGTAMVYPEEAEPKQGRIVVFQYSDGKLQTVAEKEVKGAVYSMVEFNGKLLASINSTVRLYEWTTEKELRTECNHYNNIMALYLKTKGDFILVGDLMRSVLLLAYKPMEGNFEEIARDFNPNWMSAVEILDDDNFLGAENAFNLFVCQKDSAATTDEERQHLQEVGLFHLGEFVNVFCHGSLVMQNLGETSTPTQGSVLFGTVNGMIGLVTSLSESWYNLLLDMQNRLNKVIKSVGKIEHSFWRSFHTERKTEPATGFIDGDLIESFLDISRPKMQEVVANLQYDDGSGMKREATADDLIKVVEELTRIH

On to `CNc1ccc(C(=O)Nc2nc(C)c(C)s2)c(NCCCCCCCNC(=O)CN2CCN(c3ccc(Nc4ncc5c(C)c(C(C)=O)c(=O)n(C6CCCC6)c5n4)nc3)CC2)n1` [CPD-4, 2-((7-(2-(4-(6-((6-acetyl-8-cyclopentyl-5-methyl-7-oxo-7,8-dihydropyrido[2,3-d]pyrimidin-2-yl)amino)pyridin-3-yl)piperazin-1-yl)acetamido)heptyl)amino)-N-(4,5-dimethylthiazol-2-yl)-6-(methylamino)nicotinamide], for which the 50% inhibitory concentration (IC50) (commonly the concentration that gives 50% inhibition) in experiment [1] was 50 to 100 nM; in experiment [2] it was 10 to 50 nM. Moreover, in experiment [3], the inhibition (in general, the share of the control response that was lost under treatment) at 0.04 µM is 50 to 80%.
As to `CNc1ccc(C(=O)Nc2ccc(N(C)C)nn2)c(NCC2CCN(C(=O)CCN3CCN(c4ccc(Nc5ncc6c(C)c(C(C)=O)c(=O)n(C7CCCC7)c6n5)nc4)CC3)CC2)n1` [CPD-146, 2-(((1-(3-(4-(6-((6-acetyl-8-cyclopentyl-5-methyl-7-oxo-7,8-dihydropyrido[2,3-d]pyrimidin-2-yl)amino)pyridin-3-yl)piperazin-1-yl)propanoyl)piperidin-4-yl)methyl)amino)-N-(6-(dimethylamino)pyridazin-3-yl)-6-(methylamino)nicotinamide], the concentration for half-maximal inhibition (IC50) in experiment [1] is under 50 nM. Also, the IC50 in experiment [2] was at most 10 nM. In experiment [3], this compound came in with an inhibition at 0.04 µM of 50 to 80% and an inhibition at 0.2 µM of over 80%.
Take `CNc1ccc(C(=O)Nc2ccc(N(C)C)nn2)c(NC2CC(NC(=O)CCN3CCN(c4ccc(Nc5ncc6c(C)c(C(C)=O)c(=O)n(C7CCCC7)c6n5)nc4)CC3)C2)n1` (stereo not shown) [CPD-150, 2-((3-(3-(4-(6-((6-acetyl-8-cyclopentyl-5-methyl-7-oxo-7,8-dihydropyrido[2,3-d]pyrimidin-2-yl)amino)pyridin-3-yl)piperazin-1-yl)propanamido)cyclobutyl)amino)-N-(6-(dimethylamino)pyridazin-3-yl)-6-(methylamino)nicotinamide]: in experiment [1], the 50% inhibitory concentration (IC50) fell in the range of 50 to 100 nM. The IC50 in experiment [2] is at most 10 nM. In experiment [3], this compound gave an inhibition at 0.04 µM of 50 to 80% and an inhibition at 0.2 µM of over 80%.
The like results for `CNc1ccc(C(=O)Nc2ccc(N(C)C)nn2)c(NC2CC(C(=O)NCCN3CCN(c4ccc(Nc5ncc6c(C)c(C(C)=O)c(=O)n(C7CCCC7)c6n5)nc4)CC3)C2)n1` (stereo not shown) [CPD-157, 2-((3-((2-(4-(6-((6-acetyl-8-cyclopentyl-5-methyl-7-oxo-7,8-dihydropyrido[2,3-d]pyrimidin-2-yl)amino)pyridin-3-yl)piperazin-1-yl)ethyl)carbamoyl)cyclobutyl)amino)-N-(6-(dimethylamino)pyridazin-3-yl)-6-(methylamino)nicotinamide] were, in that order, 50 to 100 nM, at most 10 nM, 50 to 80% and over 80%.
The corresponding values for `CNc1ccc(C(=O)Nc2ccc(N(C)C)nn2)c(NC2CCC3(C2)CN(C(=O)CCN2CCN(c4ccc(Nc5ncc6c(C)c(C(C)=O)c(=O)n(C7CCCC7)c6n5)nc4)CC2)C3)n1` (stereo not shown) [CPD-158, 2-((2-(3-(4-(6-((6-acetyl-8-cyclopentyl-5-methyl-7-oxo-7,8-dihydropyrido[2,3-d]pyrimidin-2-yl)amino)pyridin-3-yl)piperazin-1-yl)propanoyl)-2-azaspiro[3.4]octan-6-yl)amino)-N-(6-(dimethylamino)pyridazin-3-yl)-6-(methylamino)nicotinamide] are under 50 nM, at most 10 nM, 50 to 80% and over 80%.
With `CNc1ccc(C(=O)Nc2cc(C)n(C)n2)c(NC2CC(CNC(=O)CN3CCN(c4ccc(Nc5ncc6c(C)c(C(C)=O)c(=O)n(C7CCCC7)c6n5)nc4)CC3)C2)n1` (stereo not shown) [CPD-165, 2-((3-((2-(4-(6-((6-acetyl-8-cyclopentyl-5-methyl-7-oxo-7,8-dihydropyrido[2,3-d]pyrimidin-2-yl)amino)pyridin-3-yl)piperazin-1-yl)acetamido)methyl)cyclobutyl)amino)-N-(1,5-dimethyl-1H-pyrazol-3-yl)-6-(methylamino)nicotinamide], in experiment [1], the 50% inhibitory concentration (IC50) was over 100 nM. Further, in experiment [2], the IC50 was at most 10 nM. In addition, in experiment [3], the inhibition at 0.04 µM lay within 50 to 80% and the inhibition at 0.2 µM was over 80%.
Take `CNc1ccc(C(=O)Nc2ccc(N(C)C)nn2)c(NC2CC(CNC(=O)C(C)(C)N3CCN(c4ccc(Nc5ncc6c(C)c(C(C)=O)c(=O)n(C7CCCC7)c6n5)nc4)CC3)C2)n1` (stereo not shown) [CPD-167, 2-((3-((2-(4-(6-((6-acetyl-8-cyclopentyl-5-methyl-7-oxo-7,8-dihydropyrido[2,3-d]pyrimidin-2-yl)amino)pyridin-3-yl)piperazin-1-yl)-2-methylpropanamido)methyl)cyclobutyl)amino)-N-(6-(dimethylamino)pyridazin-3-yl)-6-(methylamino)nicotinamide]: the IC50 was under 50 nM in experiment [1] and at most 10 nM in experiment [2]. This compound gave an inhibition at 0.04 µM in experiment [3] of over 80%. Further, the inhibition at 0.2 µM in experiment [3] is over 80%.
Turning to `CNc1ccc(C(=O)Nc2cccc(C)n2)c(NC2CC(CNC(=O)CN3CCN(c4ccc(Nc5ncc6c(C)c(C(C)=O)c(=O)n(C7CCCC7)c6n5)nc4)CC3)C2)n1` (stereo not shown) [CPD-170, 2-((3-((2-(4-(6-((6-acetyl-8-cyclopentyl-5-methyl-7-oxo-7,8-dihydropyrido[2,3-d]pyrimidin-2-yl)amino)pyridin-3-yl)piperazin-1-yl)acetamido)methyl)cyclobutyl)amino)-6-(methylamino)-N-(6-methylpyridin-2-yl)nicotinamide], the 50% inhibitory concentration (IC50) in experiment [1] was 50 to 100 nM; in experiment [2], at most 10 nM. The same compound returned an inhibition at 0.04 µM in experiment [3] of 50 to 80%. For the same compound, in experiment [3], the inhibition at 0.2 µM is over 80%.
`CNc1ccc(C(=O)Nc2cccc(C)n2)c(NC2CC3(C2)CN(C(=O)C2(CN4CCN(c5ccc(Nc6ncc7c(C)c(C(C)=O)c(=O)n(C8CCCC8)c7n6)nc5)CC4)CC2)C3)n1` [CPD-171, 2-((2-(1-((4-(6-((6-acetyl-8-cyclopentyl-5-methyl-7-oxo-7,8-dihydropyrido[2,3-d]pyrimidin-2-yl)amino)pyridin-3-yl)piperazin-1-yl)methyl)cyclopropane-1-carbonyl)-2-azaspiro[3.3]heptan-6-yl)amino)-6-(methylamino)-N-(6-methylpyridin-2-yl)nicotinamide]: the IC50 in experiment [1] is under 50 nM. The half-inhibitory concentration (IC50) in experiment [2] was at most 10 nM. In experiment [3], this compound registered an inhibition at 0.04 µM of over 80% and an inhibition at 0.2 µM of over 80%.
Take `CC(=O)c1c(C)c2cnc(Nc3ccc(N4CCN(C5CCN(C(=O)[C@H]6CC[C@H](Nc7nc(NC(C)C)ccc7C(=O)Nc7cn8c(n7)CCC8)CC6)C5)CC4)cn3)nc2n(C2CCCC2)c1=O` (stereo partly drawn) [CPD-568, 2-((trans-4-(3-(4-(6-((6-acetyl-8-cyclopentyl-5-methyl-7-oxo-7,8-dihydropyrido[2,3-d]pyrimidin-2-yl)amino)pyridin-3-yl)piperazin-1-yl)pyrrolidine-1-carbonyl)cyclohexyl)amino)-N-(6,7-dihydro-5H-pyrrolo[1,2-a]imidazol-2-yl)-6-(isopropylamino)nicotinamide]: the values for the half-maximal inhibitory concentration (IC50) in experiment [1] and in experiment [2] were over 100 nM and at most 10 nM, respectively.
For the compound `[2H]C([2H])([2H])Nc1ccc(C(=O)Nc2cn3c(n2)CCC3)c(N[C@H]2CC[C@H](C(=O)N3CCC(N4CCN(c5ccc(Nc6ncc7c(C)c(C(C)=O)c(=O)n(C8CCCC8)c7n6)nc5)CC4)C3)CC2)n1` (stereo partly drawn) [CPD-569, 2-((trans-4-(3-(4-(6-((6-acetyl-8-cyclopentyl-5-methyl-7-oxo-7,8-dihydropyrido[2,3-d]pyrimidin-2-yl)amino)pyridin-3-yl)piperazin-1-yl)pyrrolidine-1-carbonyl)cyclohexyl)amino)-N-(6,7-dihydro-5H-pyrrolo[1,2-a]imidazol-2-yl)-6-((methyl-d3)amino)nicotinamide], the IC50 is over 100 nM in experiment [1] and at least 50 nM in experiment [2].
The like results for `CC(=O)c1c(C)c2cnc(Nc3ccc(N4CCN(C5CCN(C(=O)[C@H]6CC[C@H](Nc7nc(C(F)(F)F)ccc7C(=O)Nc7ccc(N(C)C)nn7)CC6)C5)CC4)cn3)nc2n(C2CCCC2)c1=O` (stereo partly drawn) [CPD-571, 2-((trans-4-(3-(4-(6-((6-acetyl-8-cyclopentyl-5-methyl-7-oxo-7,8-dihydropyrido[2,3-d]pyrimidin-2-yl)amino)pyridin-3-yl)piperazin-1-yl)pyrrolidine-1-carbonyl)cyclohexyl)amino)-N-(6-(dimethylamino)pyridazin-3-yl)-6-(trifluoromethyl)nicotinamide] were, in that order, under 50 nM and at most 10 nM.
The like results for `CC(=O)c1c(C)c2cnc(Nc3ccc(N4CCN(C5CCN(C(=O)C6(F)CCC(Nc7nc(NC(C)C)ccc7C(=O)Nc7ccc(N(C)C)nn7)CC6)C5)CC4)cn3)nc2n(C2CCCC2)c1=O` (stereo not shown) [CPD-572, 2-((4-(3-(4-(6-((6-acetyl-8-cyclopentyl-5-methyl-7-oxo-7,8-dihydropyrido[2,3-d]pyrimidin-2-yl)amino)pyridin-3-yl)piperazin-1-yl)pyrrolidine-1-carbonyl)-4-fluorocyclohexyl)amino)-N-(6-(dimethylamino)pyridazin-3-yl)-6-(isopropylamino)nicotinamide] were, in that order, 50 to 100 nM and at most 10 nM.

These data come from patent US20260297081A1, “COMPOUNDS AND METHODS OF TREATING CANCERS” (Cullgen Inc., priority 2023, published 2026).
